Data set [1] in a line: Feeling of use, graded by viscosity. As to conditions: class by viscosity at 25°C. It counts as physicochemical.
Data set [2] is described as follows: Viscosity, Brookfield viscometer DV-II+ (Spindle No. 2, 12 rpm, 25°C). It counts as physicochemical. The method, then: The viscosity of the oil agent of the present invention is, when used in external preparations such as moisturizers and cosmetic materials, preferably 5-200 (mPa·s, 25°C), and more preferably 8-100 (mPa·s, 25°C) . When the viscosity is within the above range, good feeling of use without stickiness can be obtained upon application to skin, etc. In addition, when the oil agent is used in lubricating agents, the viscosity is preferably 50-200 (mPa·s, 25°C) , and more preferably 60-180 (mPa·s, 25°C). When the viscosity is within this range, appropriate lubricating property and workability can be obtained. In this specification, "viscosity" refers to a value of viscosity measured using a Brookfield viscometer DV-II+ (Spindle No. 2, 12 rpm, 25°C).
In these examples, viscosity was measured using a Brookfield viscometer DV-II+ (Spindle No. 2, 12 rpm, 25°C).

A short description of data set [3]: Oil solubility evaluation in KAK99 (isononyl isononanoate).
Data set [4] in a line: Water solubility evaluation. Type of data set: physicochemical. As to conditions: in water.

This is an account of results in patent EP2123249A1, “OIL SOLUTION, AND LUBRICANT, MOISTURE-RETAINING AGENT AND PREPARATION FOR EXTERNAL APPLICATION CONTAINING THE SAME” (priority 2007, dated 2008).

Counter-ions that a name gives are not always drawn.

Turning to `CCOCCOCCOC(=O)CC(C)CC(C)(C)C` (stereo not drawn) [Comparative example 1, carbitol isononanoate, reference compound], the Feeling of use entry in data set [1] is given as “light”. For the same compound, the Viscosity in data set [2] came out at 5 mPa·s.

Consider `CCOCCOCCOC(=O)CCC(=O)OCCOCCOCC` [Example 1, dicarbitol succinate], for which the Feeling of use result in data set [1] is on record as “light”. For the same compound, in data set [2], the Viscosity amounted to 12.5 mPa·s.

Take `CCOCCOCCOC(=O)CC(O)C(=O)OCCOCCOCC` (stereo not drawn) [Example 2, dicarbitol malate]: the Feeling of use result in data set [1] is given as “slightly light”. Further, in data set [3], the Oil solubility entry is on record as “△ (Dissolved in KAK99 up to 5 % by mass)”. The Water solubility entry in data set [4] is given as “○ (Dissolved in water up to 10 % by mass)”. In addition, the Viscosity in data set [2] came to 45 mPa·s.

In the case of `CCOCCOCCOC(=O)CCCCC(=O)OCCOCCOCC` [Example 3, dicarbitol adipate], the Feeling of use result in data set [1] is reported as “light”. In data set [2], this compound had a Viscosity of 20 mPa·s.

As for `CCOCCOCCOC(=O)C(O)C(O)C(=O)OCCOCCOCC` (stereo not drawn) [Example 4, dicarbitol tartrate], the Feeling of use entry in data set [1] is reported as “slightly heavy”. The compound also yielded a Viscosity in data set [2] of 207 mPa·s.

As for `CCOCCOCCOCCOC(=O)CCC(=O)OCCOCCOCCOCC` [Example 5, di(triethylene glycol monoethyl ether) succinate], the Feeling of use entry in data set [1] is reported as “slightly light”. Also, the Oil solubility result in data set [3] is listed as “△ (Dissolved in KAK99 up to 5 % by mass)”. Also, the Viscosity in data set [2] stood at 32.5 mPa·s.

Take `CCOCCOC(=O)CCC(=O)OCCOCC` [Example 6, di(monoethylene glycol monoethyl ether) succinate]: the Feeling of use entry in data set [1] was “light”. For the same compound, in data set [4], the Water solubility result is given as “△ (Dissolved in water up to 5 % by mass)”. In data set [2], this compound had a Viscosity of 10.0 mPa·s.
